This note sets out measurements from patent US20120214822A1 (ASTRAZENECA AB, priority 2007, published 2012).

This test deals with human active recombinant p38α-6His tagged (Homo sapiens, UniProt Q16539). As to the kind of experiment: P38 Alpha Enzyme Assay (AlphaScreen, biotinylated-ATF2 substrate).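 Also: 0.5 nM final p38α, reaction started with ATP and run 45 min at 37 °C, phospho-ATF2 read by antibody-based AlphaScreen, background wells quenched with EDTA before ATP.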 The test is classed as biochemical. The conditions noted are these: p38 alpha enzyme inhibition; means of replicate determinations; 4 h pre-incubation at 37° C.; SD of assay 0.2-0.3 log units. For orientation: In Alpha technology, singlet oxygen from a donor bead excites a nearby acceptor bead.
Chain of human active recombinant p38α-6His tagged (Q16539 whole entry): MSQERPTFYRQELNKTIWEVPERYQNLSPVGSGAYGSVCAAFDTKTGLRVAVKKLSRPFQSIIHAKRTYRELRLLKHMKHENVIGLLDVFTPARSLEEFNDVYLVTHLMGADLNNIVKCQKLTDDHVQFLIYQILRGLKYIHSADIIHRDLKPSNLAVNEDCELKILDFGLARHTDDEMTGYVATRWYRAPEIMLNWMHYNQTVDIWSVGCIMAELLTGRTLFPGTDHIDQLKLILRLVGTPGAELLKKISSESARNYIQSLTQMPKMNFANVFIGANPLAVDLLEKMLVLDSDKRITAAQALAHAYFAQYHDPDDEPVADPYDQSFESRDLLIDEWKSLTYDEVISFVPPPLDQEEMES
As to `Cc1ccc(C(=O)NC2CC2)cc1-n1ccnc(NCCN(C)C)c1=O` [Example 5, N-Cyclopropyl-3-[3-[[2-(dimethylamino)ethyl]amino]-2-oxo-1(2H)-pyrazinyl]-4-methyl-benzamide], the pIC50 (usually −log10 of the IC50, conventionally taken in molar units) is given as 5.9.
On to `Cc1ccc(C(=O)NC2CC2)cc1-n1cc(Cl)nc(N2CCN(C)CC2)c1=O` [Example 107, 3-[5-Chloro-3-(4-methyl-1-piperazinyl)-2-oxo-1(2H)-pyrazinyl]-N-cyclopropyl-4-methyl-benzamide], for which the pIC50 came to 6.1.
Same read-out and setting: the result for `Cc1ccc(C(=O)NC2CC2)cc1-n1ccnc(NC2(c3cccc(F)c3OCCN)CC2)c1=O` [Example 284, 3-[3-({1-[2-(2-Aminoethoxy)-3-fluorophenyl]cyclopropyl}amino)-2-oxopyrazin-1(2H)-yl]-N-cyclopropyl-4-methylbenzamide] reads 9.5.
Turning to `Cc1ccc(C(=O)NC2CC2)cc1-n1ccnc(N[C@@H](c2cccc3ccccc23)[C@@H](C)CN2CCOCC2)c1=O` [Example 145, N-Cyclopropyl-4-methyl-3-[3-[[(1R,2S)-2-methyl-3-(4-morpholinyl)-1-(1-naphthalenyl)propyl]amino]-2-oxo-1(2H)-pyrazinyl]-benzamide], the pIC50 is 8.2.
Still for that read-out and setting: the result for `Cc1ccc(C(=O)NC2CC2)cc1-n1ccnc(NC(C)(C)c2ccccc2OCCCNCC(F)(F)F)c1=O` [Example 207, N-Cyclopropyl-4-methyl-3-[3-[[1-methyl-1-[2-[3-[(2,2,2-trifluoroethyl)amino]propoxy]phenyl]ethyl]amino]-2-oxo-1(2H)-pyrazinyl]-benzamide] reads 8.9; that for `Cc1cccc([C@H](Nc2nccn(-c3cc(C(=O)NC4CC4)ccc3C)c2=O)[C@@H](C)CO)c1` [Example 273, N-Cyclopropyl-3-[3-[[(1R,2R)-3-hydroxy-1-(3-methylphenyl)-2-methylpropyl]amino]-2-oxo-1(2H)-pyrazinyl]-4-methyl-benzamide], 9; that for `Cc1ccc(C(=O)NC2CC2)cc1-n1ccnc(NC(CCN2CCOCC2)c2ccccc2)c1=O` (stereo not shown) [Example 77, N-Cyclopropyl-4-methyl-3-[3-[[3-(4-morpholinyl)-1-phenylpropyl]amino]-2-oxo-1(2H)-pyrazinyl]-benzamide], 7.5.
With `CC(C)(Nc1nccn(-c2cc(C(=O)NC3CC3)ccc2Cl)c1=O)c1ccccc1OCCN` [Example 334, 3-[3-({1-[2-(2-Aminoethoxy)phenyl]-1-methylethyl}amino)-2-oxopyrazin-1(2H)-yl]-4-chloro-N-cyclopropylbenzamide], the pIC50 is 9.3.
On the same count and under the same terms, the result for `Cc1ccc(C(=O)NC2CC2)cc1-n1ccnc(N[C@@H](c2ccccc2)[C@@H](C)CNC2CC2)c1=O` [Example 183, N-Cyclopropyl-3-[3-[[(1R,2S)-3-(cyclopropylamino)-2-methyl-1-phenylpropyl]amino]-2-oxo-1(2H)-pyrazinyl]-4-methyl-benzamide] reads 9; that for `CC(C)(Nc1nccn(-c2cc(C(=O)NC3CC3)ccc2Cl)c1=O)c1ccccc1OCCNCCO` [Example 331, 4-Chloro-N-cyclopropyl-3-[3-{[1-(2-{2-[(2-hydroxyethyl)amino]ethoxy}phenyl)-1-methylethyl]amino}-2-oxopyrazin-1(2H)-yl]benzamide], 9.6.
The same measure, in the same setting: the same measure for `CNCCOc1ccccc1C(C)(C)Nc1nccn(-c2cc(C(=O)NC(C)C)ccc2C)c1=O` [Example 223, 4-Methyl-N-(1-methylethyl)-3-[3-[[1-methyl-1-[2-[2-(methylamino)ethoxy]phenyl]ethyl]amino]-2-oxo-1(2H)-pyrazinyl]-benzamide]: 8.1; for `Cc1ccc(C(=O)NC2CC2)cc1-n1ccnc(NC[C@H](C)c2ccccc2)c1=O` [Example 57, N-Cyclopropyl-4-methyl-3-[2-oxo-3-[[(2R)-2-phenylpropyl]amino]-1(2H)-pyrazinyl]-benzamide]: 7.1.
For `Cc1c(F)cc(C(=O)NC2CC2)cc1-n1ccnc(NC2(c3ccccc3OCCN)CC2)c1=O` [Example 314, 3-[3-({1-[2-(2-Aminoethoxy)phenyl]cyclopropyl}amino)-2-oxopyrazin-1(2H)-yl]-N-cyclopropyl-5-fluoro-4-methylbenzamide], the pIC50 is given as 10.4.
In the case of `Cc1ccc(C(=O)NC2CC2)cc1-n1ccnc(N2CCc3ccccc3C2)c1=O` [Example 30, N-Cyclopropyl-3-[3-(3,4-dihydro-2(1H)-isoquinolinyl)-2-oxo-1(2H)-pyrazinyl]-4-methyl-benzamide], the IC50 (commonly the concentration that inhibits the measured activity by half) is 126 nM.
On to `COCCNCCOc1ccccc1C(C)(C)Nc1nccn(-c2cc(C(=O)NC3CC3)ccc2C)c1=O` [Example 210, N-Cyclopropyl-3-[3-[[1-[2-[2-[(2-methoxyethyl)amino]ethoxy]phenyl]-1-methylethyl]amino]-2-oxo-1(2H)-pyrazinyl]-4-methyl-benzamide], for which the pIC50 is reported as 9.5.
`Cc1ccc(C(=O)NC2CC2)cc1-n1cc(C(N)=O)nc(NCc2ccccc2)c1=O` [Example 106, 4-[5-[(Cyclopropylamino)carbonyl]-2-methylphenyl]-4,5-dihydro-5-oxo-6-[(phenylmethyl)amino]-2-pyrazinecarboxamide]: the pIC50 is given as 6.2.
`Cc1ccccc1CCNc1nccn(-c2cc(C(=O)NC3CC3)ccc2C)c1=O` [Example 72, N-Cyclopropyl-4-methyl-3-[3-[[2-(2-methylphenyl)ethyl]amino]-2-oxo-1(2H)-pyrazinyl]-benzamide]: the pIC50 was 7.2.
The same measure, in the same setting: the same measure for `Cc1ccc(C(=O)NC2CC2)cc1-n1ccnc(NC(C)(C)c2ccccc2OCCCCNCC(F)(F)F)c1=O` [Example 205, N-Cyclopropyl-4-methyl-3-[3-[[1-methyl-1-[2-[4-[(2,2,2-trifluoroethyl)amino]butoxy]phenyl]ethyl]amino]-2-oxo-1(2H)-pyrazinyl]-benzamide]: 9.
On the same count and under the same terms, the result for `CNCCCCOc1ccccc1C(C)(C)Nc1nccn(-c2cc(C(=O)NC3CC3)ccc2C)c1=O` [Example 204, N-Cyclopropyl-4-methyl-3-[3-[[1-methyl-1-[2-[4-(methylamino)butoxy]phenyl]ethyl]amino]-2-oxo-1(2H)-pyrazinyl]-benzamide] reads 9.8.
Regarding `Cc1c(F)cc(C(=O)NC2CC2)cc1-n1ccnc(NC(C)(C)c2ccccc2SCCN)c1=O` [Example 321, 3-{3-[(1-{2-[(2-Aminoethyl)sulfanyl]phenyl}-1-methylethyl)amino]-2-oxopyrazin-1(2H)-yl}-N-cyclopropyl-5-fluoro-4-methylbenzamide], the pIC50 was 9.7.
On the same count and under the same terms, the same measure for `Cc1c(F)cc(C(=O)NC2CC2)cc1-n1ccnc(NC(C)(C)c2ccccc2OCCNCCC(=O)O)c1=O` [Example 313, N-(2-{2-[1-({4-[5-(Cyclopropylcarbamoyl)-3-fluoro-2-methylphenyl]-3-oxo-3,4-dihydropyrazin-2-yl}amino)-1-methylethyl]phenoxy}ethyl)-beta-alanine]: 9.9; for `Cc1ccc(C(=O)NC2CC2)cc1-n1ccnc(N[C@@H](c2ccccc2)[C@@H](C)CN2CCCC2(C)C)c1=O` [Example 197, N-Cyclopropyl-3-[3-[[(1R,2S)-3-(2,2-dimethyl-1-pyrrolidinyl)-2-methyl-1-phenylpropyl]amino]-2-oxo-1(2H)-pyrazinyl]-4-methyl-benzamide]: 9.
On the same count and under the same terms, the result for `C[C@@H](O)CNCCOc1ccccc1C(C)(C)Nc1nccn(-c2cc(C(=O)NC3CC3)ccc2Cl)c1=O` [Example 332, 4-Chloro-N-cyclopropyl-3-[3-({1-[2-(2-{[(2R)-2-hydroxypropyl]amino}ethoxy)phenyl]-1-methylethyl}amino)-2-oxopyrazin-1(2H)-yl]benzamide] reads 9.7; that for `Cc1ccc(C(=O)NC2CC2)cc1-n1ccnc(NCc2cccc(F)c2)c1=O` [Example 22, N-Cyclopropyl-3-[3-[[(3-fluorophenyl)methyl]amino]-2-oxo-1(2H)-pyrazinyl]-4-methyl-benzamide], 7.
On the same count and under the same terms, the result for `CNCCOc1ccccc1C(C)(C)Nc1nccn(-c2cc(C(=O)NCC(C)C)ccc2C)c1=O` [Example 226, 4-Methyl-3-[3-[[1-methyl-1-[2-[2-(methylamino)ethoxy]phenyl]ethyl]amino]-2-oxo-1(2H)-pyrazinyl]-N-(2-methylpropyl)-benzamide] reads 6.6; that for `COCCNCCOc1ccccc1C(C)(C)Nc1nccn(-c2cc(C(=O)NC3CC3)cc(F)c2C)c1=O` [Example 255, N-Cyclopropyl-3-fluoro-5-[3-[[1-[2-[2-[(2-methoxyethyl)amino]ethoxy]phenyl]-1-methylethyl]amino]-2-oxo-1(2H)-pyrazinyl]-4-methyl-benzamide], 10.2.
As for `Cc1ccc(C(=O)NC2CC2)cc1-n1ccnc(NCC2CCOCC2)c1=O` [Example 90, N-Cyclopropyl-4-methyl-3-[2-oxo-3-[[(tetrahydro-2H-pyran-4-yl)methyl]amino]-1(2H)-pyrazinyl]-benzamide], the negative-log IC50 (pIC50) is listed as 6.4.
On the same count and under the same terms, the result for `Cc1ccc(C(=O)NC2CC2)cc1-n1ccnc(NCCCN(C)C)c1=O` [Example 3, N-Cyclopropyl-3-[3-[[3-(dimethylamino)propyl]amino]-2-oxo-1(2H)-pyrazinyl]-4-methyl-benzamide] reads 6.1.
As to `Cc1c(F)cc(C(=O)NC2CC2)cc1-n1ccnc(NC2(c3ccccc3OCCN(C)CCO)CC2)c1=O` [Example 315, N-Cyclopropyl-3-fluoro-5-[3-{[1-(2-{2-[(2-hydroxyethyl)(methyl)amino]ethoxy}phenyl)cyclopropyl]amino}-2-oxopyrazin-1(2H)-yl]-4-methylbenzamide], the pIC50 is 10.
The same measure, in the same setting: the same measure for `Cc1ccc(C(=O)NC2CC2)cc1-n1ccnc(NC2Cc3ccccc3C2)c1=O` [Example 64, N-Cyclopropyl-3-[3-[(2,3-dihydro-1H-inden-2-yl)amino]-2-oxo-1(2H)-pyrazinyl]-4-methyl-benzamide]: 6.8.
With `Cc1ccc(C(=O)NC2CC2)cc1-n1ccnc(NCc2cccc(C)c2C)c1=O` [Example 92, N-Cyclopropyl-3-[3-[[(2,3-dimethylphenyl)methyl]amino]-2-oxo-1(2H)-pyrazinyl]-4-methyl-benzamide], the pIC50 is 7.6.
